Results: article PMC11513618 (RSC Advances, 2024)
Square brackets hold non-standard residues; d marks the D form. Peptide text beside a SMILES is read from it. * marks the point of attachment. X1 = CC(=O)N[C@@H]1[C@@H](O[C@@H]2O[C@H](CO)[C@H](O)[C@H](O)[C@H]2O)[C@@H](O)[C@@H](CO[C@@H]2O[C@H](CO)[C@@H](O[C@@H]3O[C@H](CO)[C@H](O)[C@H](O[C@]4(C(=O)O)C[C@H](O)[C@@H](NC(C)=O)[C@H]([C@H](O)[C@H](O)CO)O4)[C@H]3O)[C@H](O[C@@H]3O[C@@H](C)[C@@H](O)[C@@H](O)[C@@H]3O)[C@H]2NC(C)=O)O[C@@H]1*; Phe(4-CH2SO3H) = N[C@@H](Cc1ccc(CS(=O)(=O)O)cc1)C(=O)O

Target: human P-selectin (Fc chimera) binding to PSGL-1 on U-937 monocytes (Homo sapiens, UniProt P16109)
Test: Flow cytometry: inhibition of P-selectin-Fc chimera binding to U-937 monocytes
Assay type: cell-based

IC50: 11.1 µM
SMILES: CC(=O)N[C@H]1[C@H](OC[C@H]2O[C@H](O[C@H](C)[C@H](NC(=O)[C@H](CCC(=O)O)NC(=O)[C@@H]3CCCN3C(=O)[C@H](CC(C)C)NC(=O)[C@H](Cc3ccccc3)NC(=O)[C@H](CC(=O)O)NC(=O)[C@H](Cc3ccc(CS(=O)(=O)O)cc3)NC(=O)[C@H](CC(=O)O)NC(=O)[C@H](CC(C)C)NC(=O)[C@H](Cc3ccc(CS(=O)(=O)O)cc3)NC(=O)[C@H](CCC(=O)O)NC(=O)[C@H](Cc3ccc(CS(=O)(=O)O)cc3)NC(=O)[C@H](CCC(=O)O)NC(=O)[C@H](CCCCN)NC(C)=O)C(=O)N[C@@H](CCC(=O)O)C(=O)N3CCC[C@H]3C(=O)N[C@@H](CC(C)C)C(=O)O)[C@H](NC(C)=O)[C@@H](O[C@@H]3O[C@H](CO)[C@H](O)[C@H](O)[C@H]3O)[C@H]2O)O[C@H](CO)[C@@H](O[C@@H]2O[C@H](CO)[C@H](O)[C@H](O[C@]3(C(=O)O)C[C@H](O)[C@@H](NC(C)=O)[C@H]([C@H](O)[C@H](O)CO)O3)[C@H]2O)[C@@H]1O[C@@H]1O[C@@H](C)[C@@H](O)[C@@H](O)[C@@H]1O [GSnP-6] (Ac-KE[Phe(4-CH2SO3H)]E[Phe(4-CH2SO3H)]LD[Phe(4-CH2SO3H)]DFLPET(X1)EPL-OH; C-terminus assumed)
